The target in the test is T1, TLR9 (Homo sapiens, UniProt Q9NR96).
T1 construct: Fresh blood was collected from normal human donors; endogenous in cells; host or cells: human PBMCs from fresh donor blood
T1 sequence (Q9NR96 26-1032): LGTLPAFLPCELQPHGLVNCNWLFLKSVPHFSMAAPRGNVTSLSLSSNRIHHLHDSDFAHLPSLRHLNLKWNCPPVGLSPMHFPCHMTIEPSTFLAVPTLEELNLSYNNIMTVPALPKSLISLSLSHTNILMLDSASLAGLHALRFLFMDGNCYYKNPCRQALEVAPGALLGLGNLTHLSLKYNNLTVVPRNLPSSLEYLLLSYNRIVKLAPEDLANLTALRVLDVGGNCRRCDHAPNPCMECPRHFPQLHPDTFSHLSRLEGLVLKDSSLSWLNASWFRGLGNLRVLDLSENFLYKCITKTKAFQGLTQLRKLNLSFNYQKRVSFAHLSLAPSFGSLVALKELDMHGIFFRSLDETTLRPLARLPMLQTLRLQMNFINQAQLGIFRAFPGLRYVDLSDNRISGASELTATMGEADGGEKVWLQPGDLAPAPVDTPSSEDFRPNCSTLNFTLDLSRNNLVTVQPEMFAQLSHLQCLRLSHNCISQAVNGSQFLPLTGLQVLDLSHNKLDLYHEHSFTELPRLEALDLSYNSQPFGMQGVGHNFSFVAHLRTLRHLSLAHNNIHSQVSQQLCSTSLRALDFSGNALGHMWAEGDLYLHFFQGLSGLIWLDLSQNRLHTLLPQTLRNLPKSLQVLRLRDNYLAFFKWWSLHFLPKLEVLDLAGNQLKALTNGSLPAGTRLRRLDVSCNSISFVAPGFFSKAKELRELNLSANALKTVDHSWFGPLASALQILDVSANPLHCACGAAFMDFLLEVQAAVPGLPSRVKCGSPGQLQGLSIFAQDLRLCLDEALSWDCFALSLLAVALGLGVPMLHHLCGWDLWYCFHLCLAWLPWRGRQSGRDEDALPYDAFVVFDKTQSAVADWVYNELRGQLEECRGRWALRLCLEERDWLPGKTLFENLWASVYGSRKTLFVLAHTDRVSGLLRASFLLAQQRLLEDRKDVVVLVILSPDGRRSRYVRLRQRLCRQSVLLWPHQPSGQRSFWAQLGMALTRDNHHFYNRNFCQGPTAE
Kind of test: huPBMC TLR9 Antagonist IFNα Assay. In kind it is cell-based. Conditions: human PBMCs stimulated with ODN2216 0.3 μM, 14-16 hrs; IFNα2b AlphaLISA read-out. The protocol:
Compounds were generally serially diluted (1/3) in DMSO and plated on sterile 384 well tissue culture plates and stored until ready for use. Each ten-point dilution was typically plated in triplicate in parallel rows.
Fresh blood was collected from normal human donors underwritten informed consent in heparinized syringes on the morning of the assay. The blood was diluted in RPMI-1640 medium and the white blood cells were separated from red blood cells by centrifugation (800 g 15′ 0 acceleration, 0 brake) on a Ficoll cushion. Peripheral blood mononuclear cells (PBMCs) were separated from platelets by a series of low-speed centrifugations (1000RPM 10′) in PBS+5% HI—FBS and 1 mM EDTA. Purified PBMCs were re-suspended in assay medium (RPMI-1640 w Glutamax (Invitrogen) supplemented with 5% HI—FBS, 10 mM HEPES, 50 uM β-mercaptoethanol, and 100 mG/L penicillin/streptomycin cocktail). Viable PBMCs were counted on a hemacytometer and kept on ice until ready for plating.
A 4× concentration (4 ug/ml or 40 ug/ml for TLR8 or TLR7 assays, respectively) of the TLR7/8 agonist ssRNA40 (IDT) was complexed with 10% DOTAP (Roche) in assay medium for 30 min prior to addition to the PBMC suspension (5 million cells/ml). After addition, the final concentration of ssRNA40 in the TLR7/8 stimulated PBMC suspension was 1 μg/ml for TLR8 assay, and 10 μg/mL for the TLR7 assay. The final DOTAP concentration was 2.5%. Diluted PBMCs (5 million cells/ml) were treated with 4×TLR9 agonist ODN2216 (Invivogen). Final concentration of ODN2216 in TLR9 stimulated PBMC suspension was 0.3 μM.
Agonist stimulated PBMCs were plated on the compound treated 384 well plates at 150,000 cells/well. Un-stimulated PBMCs were plated as controls on each plate. Plating volume was 40 μL per well. DMSO concentration in each well was 0.25%.
A separate plate, without compounds, with titrations of ssRNA40 and ODN2216 was included in every assay to measure agonist response of each donor's PBMC prep. Assay plates were placed in a tissue culture incubator (37° C., 5% CO2) for 14-16 hrs. After this incubation, the plates were centrifuged and stored at −20° C. until they were assayed.
IL-6 TR-FRET Assay for TLR8 activity: • 1) Cisbio Human IL-6 kit, 20,000 tests (62TNFPEC), and GNF High-Base TC 384 well plates (cat #789163G) were used; • 2) the Anti-TIL-6 Cryptate conjugate and the Anti-IL-6 XL665 conjugate were diluted 1:20 in Reconstitution Buffer; • 3) a 1:1 mixture of 3 μl/well Anti-IL-6 Cryptate conjugate and 3 μl/well Anti-IL-6 XL665 conjugate was prepared; • 4) 6 μl/well HTRF dilution mastermix was added to 6 μl of transferred supernatant samples in proxiplates; • 5) The plates were incubated for 3 hrs at rt in the dark; and • 6) the levels of IL-6 production was measured using an Envision plate reader (665 nm (emmission)/590 nm (excitation)) with HTRF settings and ratiometric read-out: (XL665 emission/Eu Cryptate emission)×10,000. IFNα2b AlphaLISA Assay for TLR7 or TLR9 activity After thawing the assay plates, 6 μL of supernatant samples were transferred to a low-volume AlphaPlate 384SW (Perkin-Elmer). The concentration of IFNα in supernatants was measured using the IFNα2b AlphaLISA Assay (Perkin-Elmer: AL297F). 3 μL of IFNα acceptor beads/biotinylated antibody solution was added first, using laboratory automation. After an hour incubation, […] of streptavidin […] bead solution was added. The plates containing this mixture were incubated in the dark for an hour and read on an appropriate plate reader at reading parameters set by the manufacturer. (Envision, EnSpire: Perkin-Elmer).

Usually IC50 stands for the midpoint of a concentration-inhibition curve. Consider `Cc1cc(N2CCc3c(c(C)nn3CC34CCC(NC(=O)OC(C)(C)C)(CC3)CC4)C2)c2ccncc2n1` [Compound No. 147, tert-butyl (4-((3-methyl-5-(2-methyl-1,7-naphthyridin-4-yl)-4,5,6,7-tetrahydro-1H-pyrazolo[4,3-c]pyridin-1-yl)methyl)bicyclo[2.2.2]octan-1-yl)carbamate], for which the concentration for half-maximal inhibition (IC50) stood at 6.24 µM. `Cn1ncc2c(N3CCc4c(cnn4CC45CCC(N)(CC4)CC5)C3)nc(N)nc21` [compound 11, 4-(1-((4-aminobicyclo[2.2.2]octan-1-yl)methyl)-6,7-dihydro-1H-pyrazolo[4,3-c]pyridin-5(4H)-yl)-1-methyl-1H-pyrazolo[3,4-d]pyrimidin-6-amine]: the half-inhibitory concentration (IC50) was more than 6.58 µM. For the compound `Cn1ncc2c(N3CCc4nn(CC56CCC(N)(CC5)CC6)cc4C3)nc(N)nc21` [compound 12, 4-(2-((4-aminobicyclo[2.2.2]octan-1-yl)methyl)-6,7-dihydro-2H-pyrazolo[4,3-c]pyridin-5(4H)-yl)-1-methyl-1H-pyrazolo[3,4-d]pyrimidin-6-amine], the IC50 was more than 4.96 µM. In the case of `Cc1nn(CC23CCC(N)(CC2)CC3)c2c1CN(c1nc(N)nc3c1cnn3C)CC2` [compound 13, 4-(1-((4-aminobicyclo[2.2.2]octan-1-yl)methyl)-3-methyl-6,7-dihydro-1H-pyrazolo[4,3-c]pyridin-5(4H)-yl)-1-methyl-1H-pyrazolo[3,4-d]pyrimidin-6-amine], the IC50 is 7.75 µM.

`Cc1c2c(nn1CC13CCC(N)(CC1)CC3)CCN(c1nc(N)nc3c1cnn3C)C2` [compound 14, 4-(2-((4-aminobicyclo[2.2.2]octan-1-yl)methyl)-3-methyl-6,7-dihydro-2H-pyrazolo[4,3-c]pyridin-5(4H)-yl)-1-methyl-1H-pyrazolo[3,4-d]pyrimidin-6-amine]: the concentration for half-maximal inhibition (IC50) is more than 9.09 µM. Regarding `Cc1nn(CC23CCC(N)(CC2)CC3)c2c1CN(c1nc(Cl)nc3cnn(C)c13)CC2` [compound 15, 4-((5-(5-chloro-1-methyl-1H-pyrazolo[4,3-d]pyrimidin-7-yl)-3-mehtyl-4,5,6,7-tetrahydro-1H-pyrazolo[4,3-c]pyridin-1-yl)methyl)bicyclo[2.2.2]octan-1-amine], the 50% inhibitory concentration (IC50) was 1.27 µM. Take `Cc1nc(N2CCc3c(c(C)nn3CC34CCC(N5CCCC5)(CC3)CC4)C2)c2cnn(C)c2n1` [compound 16, 1,6-dimethyl-4-(3-methyl-1-((4-(pyrrolidin-1-yl)bicyclo[2.2.2]octan-1-yl)methyl)-6,7-dihydro-1H-pyrazolo[4,3-c]pyridin-5(4H)-yl)-1H-pyrazolo[3,4-d]pyrimidine]: the IC50 was more than 10 µM.

`Cc1nc(N2CCc3c(c(C)nn3CC34CCC(N5CCCC5)(CC3)CC4)C2)c2c(n1)c(C)nn2C` [compound 17, 1,3,5-trimethyl-7-(3-methyl-1-((4-(pyrrolidin-1-yl)bicyclo[2.2.2]octan-1-yl)methyl)-6,7-dihydro-1H-pyrazolo[4,3-c]pyridin-5(4H)-yl)-1H-pyrazolo[4,3-d]pyrimidine]: the IC50 is more than 10 µM. Turning to `COCCNC12CCC(Cn3nc(C)c4c3CCN(c3nc(C)nc5c(C)nn(C)c35)C4)(CC1)CC2` [compound 18, N-(2-methoxyethyl)-4-((3-methyl-5-(1,3,5-trimethyl-1H-pyrazolo[4,3-d]pyrimidin-7-yl)-4,5,6,7-tetrahydro-1H-pyrazolo[4,3-c]pyridin-1-yl)methyl)bicyclo[2.2.2]octan-1-amine], the 50% inhibitory concentration (IC50) is more than 10 µM. As for `Cc1nc(N2CCc3c(c(C)nn3CC34CCC(N5CCOCC5)(CC3)CC4)C2)c2cnn(C)c2n1` [compound 19, 4-(4-((5-(1,6-dimethyl-1H-pyrazolo[3,4-d]pyrimidin-4-yl)-3-methyl-4,5,6,7-tetrahydro-1H-pyrazolo[4,3-c]pyridin-1-yl)methyl)bicyclo[2.2.2]octan-1-yl)morpholine], the IC50 is more than 10 µM. Turning to `CCNCC(=O)NC12CCC(Cn3nc(C)c4c3CCN(c3nc(C)nc5[nH]ncc35)C4)(CC1)CC2` [compound 20, 2-(ethylamino)-N-(4-((3-methyl-5-(6-methyl-1H-pyrazolo[3,4-d]pyrimidin-4-yl)-4,5,6,7-tetrahydro-1H-pyrazolo[4,3-c]pyridin-1-yl)methyl)bicyclo[2.2.2]octan-1-yl)acetamide], the 50% inhibitory concentration (IC50) is more than 9.38 µM. As to `Cc1nc(N2CCc3c(c(C)nn3CC34CCC(N5CCOCC5)(CC3)CC4)C2)c2cn[nH]c2n1` [compound 21, 4-(4-((3-methyl-5-(6-methyl-1H-pyrazolo[3,4-d]pyrimidin-4-yl)-4,5,6,7-tetrahydro-1H-pyrazolo[4,3-c]pyridin-1-yl)methyl)bicyclo[2.2.2]octan-1-yl)morpholine], the concentration for half-maximal inhibition (IC50) was more than 10 µM.

Consider `CCNCC(=O)NC12CCC(Cn3nc(C)c4c3CCN(c3nc(C)nc5c(C)nn(C)c35)C4)(CC1)CC2` [compound 22, 2-(ethylamino)-N-(4-((3-methyl-5-(1,3,5-trimethyl-1H-pyrazolo[4,3-c]pyrimidin-7-yl)-4,5,6,7-tetrahydro-1H-pyrazolo[4,3-c]pyridin-1-yl)methyl)bicyclo[2.2.2]octan-1-yl)acetamide], for which the 50% inhibitory concentration (IC50) is more than 10 µM. The value for `Cc1nc(N2CCc3c(c(C)nn3CC34CCC(NCC5COC5)(CC3)CC4)C2)c2c(n1)c(C)nn2C` [compound 23, 4-((3-methyl-5-(1,3,5-trimethyl-1H-pyrazolo[4,3-c]pyrimidin-7-yl)-4,5,6,7-tetrahydro-1H-pyrazolo[4,3-c]pyridin-1-yl)methyl)-N-(oxetan-3-ylmethyl)bicyclo[2.2.2]octan-1-amine] was more than 10 µM; that for `Cc1nc(N2CCc3c(c(C)nn3CC34CCC(NC(=O)CCN(C)C)(CC3)CC4)C2)c2c(n1)c(C)nn2C` [compound 24, 3-(dimethyalmino)-N-(4-((3-methyl-5-(1,3,5-trimethyl-1H-pyrazolo[4,3-d]pyrimidin-7-yl)-4,5,6,7-tetrahydro-1H-pyrazolo[4,3-c]pyridin-1-yl)methyl)bicyclo[2.2.2]octan-1-yl)propanamide] was more than 7.38 µM.

The record behind these values is patent US20240376099A1, “COMPOUNDS AND COMPOSITIONS AS INHIBITORS OF ENDOSOMAL TOLL-LIKE RECEPTORS” (Novartis AG, priority 2016, published 2024).
